This is an account of results in patent publication US20230381275A1, “MUSCULAR FUNCTION IMPROVING AGENT FOR SKELETAL MUSCLE OF WHICH FUNCTION IS DEGRADED DUE TO AGING” (OSAKA UNIVERSITY, priority 2020, published 2023).

For experiment [1] the following is noted: relative to SVVYGLR (SEQ ID NO.: 1); earlier work of the inventors; cited from earlier work.
For experiment [2], the system named is aging-accelerated model mice (SAMP10). Kind of experiment: Exercise evaluation on treadmill, mean workload (Example 4). It is filed as in vivo. Conditions: SV-treated group (training and SV peptide) relative to PBS group; FIG. 6. On the procedure: Aging-accelerated model mice (SAMP10 28 weeks old) were trained on a treadmill (MK-680; Muromachi Kikai Co., Ltd.) (18 m/min×90 min) and subsequent SV peptide administration was performed according to the schedule in the following table. After 30 weeks of age, training was performed continuously from Monday to Friday of each week. SV peptides were added to PBS to adjust to a concentration of 1 μg/ml or 20 ng/ml for injection formulation. Localized injections were made into the bilateral leg muscles of each mouse anesthetized by inhalation with sevoflurane immediately after training on Tuesday and Friday (SV group). Exercise evaluations were performed after SV peptide localization on Friday.
Exercise evaluations were conducted for endurance evaluation, in which the belt speed on the treadmill was increased incrementally at regular intervals, and for slope-up evaluation, in which the belt incline was increased incrementally at regular intervals. […]
The mean workload was calculated as the mean value of workload calculated by multiplying body weight, running time, slope (grade), running speed, and gravitational acceleration g(9.8 m/s^2) for each mouse in each group by […].

Regarding “SVVYGLR [SV peptide, peptide consisting of 7 amino acids (SVVYGLR]”, the angiogenic effect entry in experiment [1] is “promoting angiogenesis”. Moreover, in experiment [2], the mean workload entry is reported as “higher workload relative to the PBS group”.
